One experiment relates to DU-145. The experiment can be described thus: Cytotoxicity against human DU145 cells. It is filed as functional. The following applies: read-out: ED50 (the source's name).
A further experiment deals with NCI60. The experiment can be described thus: Cytotoxicity against human NCI60 cells. It is filed as functional, cell-based.

The text below walks through data of ChEMBL document CHEMBL1159238, “Brevitaxin, a new diterpenolignan from the bark of Taxus brevifolia” (1995).

Activity calls are given as the source filed them. The rule behind the calls is not given here.

On to `COc1cc([C@@H]2Oc3c(C(C)C)cc4c(=O)cc5c(cc4c3O[C@H]2CO)C=CC(=O)C5(C)C)ccc1O` [BREVITAXIN], for which the EC50 in the experiment on DU-145 is 6.8 µM. For the same molecule, in the experiment on NCI60, the result was Active.
